The text below walks through data of patent US9808434B2, “Compound for treating cancer and diabetes” (CITY OF HOPE, priority 2011, dated 2017).

Series [1] relates to Glioma Cells PBT-017 and/or U251. Description: Combination index COH-SR4 and 5-FU, cell line not stated. The conditions noted are these: COH-SR4 <0.5 μM + 5-FU <125 μM. The series is classed as cell-based. The procedure: Effects of combination of COH-SR4 and a chemotherapy drug such as TMZ, SN38, CPT-11, and 5-FU were studied by combination index (CI) theorem and plot using the method described in Chou (“Experimental Design, and Computerized Simulation of Synergism and Antagonism in Drug Combination Studies,” Pharmacological Reviews, Vol. 58, No. 3), which is incorporated herein by reference in its entirety.
COH-SR4 and a chemotherapy drug (TMZ, SN38, CPT-11, or 5-FU) were dissolved in DMSO individually, and then diluted to the appropriate concentration in the same cell culture media before applying to cells of each cell line. After 4 days, the amount of ATP present in the cell lysates were assessed using Progema's CellGlo kit. The CI of each combination of COH-SR4 and the chemotherapy drug was calculated and plotted against the concentration of COH-SR4 for each concentration of the chemotherapy drug used.

Series [2] deals with SK-Mel-2. Description: Colony formation assay, SK-Mel-2. The series is classed as cell-based, human. Conditions: 5 μM. How it is done: Cell survival was evaluated using a standard colony-forming assay. In total, 1×10^5 cells/mL were incubated with COH-SR4 (1.5 μM or 5 μM) or elesclomol (5 μM) for 24 h, and aliquots of 50 or 100 μL were added to 60 mm size petri dishes, containing 4 mL culture medium. After 7 or 10 days, adherent colonies were fixed, stained with 0.5% methylene blue for 30 min and colonies were counted using the Innotech Alpha Imager HP (91).

Series [3] concerns B16-F0 mouse and A2058 human melanoma cells. Description: Cell cycle FACS analysis, melanoma. The series is classed as cell-based. Conditions: 18 h. How it is done:
2×10^5 cells were treated with COH-SR4 (0 μM, 5 μM or 10 μM) for 18 h at 37° C. After treatment, floating and adherent cells were collected, washed with PBS, and fixed with 70% ethanol. On the day of flow analysis, cell suspensions were centrifuged; counted and same numbers of cells were resuspended in 500 μL PBS in flow cytometry tubes. Cells were then incubated with 2.5 μL of RNase (stock 20 mg/mL) at 37° C. for 30 min after which they were treated with 10 μL of propidium iodide (stock 1 mg/mL) solution and then incubated at room temperature for 30 min in the dark. The stained cells were analyzed using the Beckman Coulter Cytomics FC500, Flow Cytometry Analyzer. Results were processed using CXP2.2 analysis software from Beckman Coulter.
Background: In flow cytometry, cells or beads pass a laser one at a time.

Series [4] deals with A2058 p^0 cells. The series can be described thus: Oxygen consumption rate in mitochondrial DNA-depleted cells. The series is classed as cell-based, human. The conditions noted are these: compared with wild-type A2058; data not shown. The procedure:
Oxygen consumption rate (OCR), a measure of OxPhos, and extracellular acidification rate (ECAR), a measure of lactate production by glycolysis, were measured using a Seahorse Xf^e96 Flux Analyzers (Seahorse Biosciences, North Billerica, Mass.). Cells were seeded in DMEM media in Seahorse 96-well tissue culture plates at a density of 5×10^3 cells/well and allowed to adhere for 24 h. Prior to the assay, the media was changed to unbuffered DMEM containing 25 mM glucose, 1 mM pyruvate and 1 mM glutamine, with 0.2% fatty acid/endotoxin-free BSA (w/v) (pH 7.4) and the cells were equilibrated for 30 min at 37° C. Test compounds were injected during the assay and OCR and ECAR were measured using 2-3 min measurement periods. Similar sets of experiments were performed in the presence of the mitochondria recoupler agent 6-KCH or the mitochondrial permeability transition (MPT) pore blocker CSA, where each compound was injected into the assay media prior to COH-SR4 or FCCP injection. […] OCR was measured throughout the different injections of the stressors and test compounds (indicated by arrows in the figures).
To verify that COH-SR4 acts directly on mitochondrial respiration, OCR in mitochondrial DNA-depleted (p^0) A2058 cells was measured, as well as freshly isolated mouse liver mitochondria and treated with either COH-SR4 or FCCP.

Series [5] has as its system AMPK, ACC, Raptor, TSC2. Description: AMPK-mTOR signaling in lung cancer cells, Western-blot. The series is classed as cell-based, human. The procedure: Cell or tissue proteins were extracted with cell lysis buffer (Cell Signaling Technology) and protein concentration was determined using the DC Protein Assay kit (Bio-Rad, Hercules, Calif., USA). Equal amount of proteins (˜40 μg) were loaded onto 4-15% Criterion TGX gels (Bio-Rad, Hercules, Calif.), resolved by SDS-PAGE electrophoresis, and then transferred onto nitrocellulose membranes for immunoblotting. Membranes were blocked with 5% skimmed milk in Tris-buffered saline containing 0.05% Tween 20 before incubation overnight at 4° C. with desired primary antibodies. Immuno-reactive proteins were visualized by peroxidase-labeled secondary antibodies and ECL system (Western Lightning Chemiluminescence Reagent, Perkin-Elmer, Mass., USA). Equal loading of proteins was confirmed by stripping and re-probing the membranes with either β-actin or GAPDH antibodies. Band intensities were quantified using a densitometer (Quantity One, Bio-Rad, Hercules, Calif.).
AMPK was knocked down by siRNA and assessed the impact on COH-SR4-induced cytotoxicity. […] Thus, the in-vitro analyses of critical signaling proteins of cell proliferation further supported the anti-cancer effects of COH-SR4 in lung cancer cells.

Series [6] deals with H358 lung cancer tumor. Description: Histopathology of H358 tumor sections. The series is classed as in vivo, mouse. The conditions noted are these: treated vs control. The procedure: For lung cancer studies, control and COH-SR4 treated H358 lung cancer bearing mice tumor sections were used for histopathologic analyses. Immuno-histochemistry analyses were performed for Ki67, CD31, E-cadherin, and pAMPK expressions. […] Sections were counterstained with Hematoxylin (blue). Photomicrographs at 40× magnification were acquired using Olympus DP 72 microscope and were processed with DP2-BSW software. Percent staining was determined by measuring positive immuno-reactivity per unit area. The intensity of antigen staining was quantified by digital image analysis using Image Pro plus 6.3 software.
Control and COH-SR4 treated tumor sections obtained from the in-vivo animal studies of Example 31 were used for histopathologic analyses. […] Arrows represent the area for positive staining for an antigen. Bars represent means with 95% confidence intervals (n=5). Asterisks denote statistically significant differences (p<0.001) compared with control by two-sided Student's t test. Statistical significance of difference was determined following image analyses as described in methods section.

With `O=C(Nc1cc(Cl)cc(Cl)c1)Nc1cc(Cl)cc(Cl)c1` [COH-SR4, 1,3-bis(3,5-dichlorophenyl) urea], the “combination effect (CI) with 5-FU” value in series [1] is reported as “synergism”. This compound had a colony formation in series [2] of 48±6%. In addition, the “cells accumulated in G2 phase (G2/M phase arrest)” value in series [3] is reported as about 50%. In series [4], the “OCR in mitochondrial DNA-depleted cells” value is listed as “failed to increase OCR”. The “phosphorylation of AMPK, ACC, Raptor, TSC2” value in series [5] is given as “increased phosphorylation of AMPK (pAMPK)”. Besides, the “Ki67 and CD31 levels” value in series [6] (ABC staining) was “decreased the levels of proliferation marker Ki67, and angiogenesis marker CD31”. The “pAMPK and E-cadherin levels” value in series [6] is “increased the levels of pAMPK and normal differentiation marker E-cadherin”.
